Assay results published in publication PMC8623418, “Novel Multitarget Hydroxamic Acids with a Natural Origin CAP Group against Alzheimer’s Disease: Synthesis, Docking and Biological Evaluation” (Pharmaceutics, 2021).

Columns and labels:
[1] = system: lipid peroxidation (LPO) of rat brain homogenate; assay: Lipid peroxidation (LPO) of rat brain homogenate, TBARS test; format: biochemical; settings: substances at 100 μM, mean ± SEM; for % of Activity, Inhibition of LPO, Fe (II): Fe (II)-induced; for % of Activity, Inhibition of LPO, t-BHP: t-BHP-induced
Description: To obtain the brain homogenate, rats preliminarily anesthetized with CO2 were decapitated with a guillotine. The brain was homogenized in a buffer containing KCl (120 mM) and HEPES (20 mM), pH = 7.4 at 4 °C, and centrifuged at 1500 rpm to obtain a supernatant. The protein was quantified according to the standard microbiuret method.
To investigate the effect of the compounds on lipid peroxidation (LPO) of rat brain homogenate, we used the modified version of the TBARS test, which is based on the reaction of 2-thiobarbituric acid with the end LPO product—malonic dialdehyde (MDA). The plate well, according to the experimental scheme, contained the compounds under study (100 μM), rat brain homogenate (2 mg/mL), as well as ferrous iron ions ([…]) at a concentration of 500 μM and 1.6 mM tert-butyl hydroxyperoxide as an initiator. After 30 min of incubation at 37 °C, TBARS reagent was added to all samples, incubated for 90 min at 90 °C, and centrifuged at 6000 rpm for 15 min. The optical density of the selected supernatant was measured on a Victor 3 plate reader (Perkin Elmer) at λ = 540 nm.
A rat brain homogenate preparation containing fragments of cell membranes was used as a model system to investigate the antioxidant activity of the hydroxamic acids. To initiate the process of lipid peroxidation, ferrous ions were used to trigger the Fenton reaction, during which the iron valence changes and a highly reactive hydroxyl radical is formed, and tert-butyl hydroxyperoxide as a direct source of free radicals.

5xFAD transgenic mice = assay: Ex vivo Congo red staining of Aβ plaques in brain sections; settings: compared to untreated 5XFAD mice
Description: For histological examination, the mouse brain was fixed in 10% neutral buffered formalin (Leica Biosystems Inc., Buffalo Grove, IL, USA) at +4 °C for 24 h. Then, the material was dehydrated, defatted, and clarified in a Leica ASP200 apparatus (Leica Biosystems Inc., Buffalo Grove, IL, USA) using ethanol-xylene wiring according to the following scheme: deionized water—2 h; 70% ethanol—12 h; ethanol 96% sequentially—1 h, 30 min, 2 portions 15 min each; a mixture of ethanol and xylene 1:1—20 min; xylene—2 portions for 30 min each; paraffin—3 times for 1 h each. Then, the material was embedded in paraffin blocks using a Leica EG1160 apparatus (Leica Biosystems Inc., Buffalo Grove, IL, USA). […] The results were evaluated using a ZEISS LSM 880 laser scanning microscope with an Airyscan module (Carl Zeiss Vision, Jena, Germany). […] A 10 × 10 grid was imposed on images containing only brain tissue; then, in 10 grid cells located obliquely from top left to right bottom corner, we selected plaques using the ‘magic wand’ tool, so the average plaque area and luminosity were calculated. Three images were analyzed for each animal in each group; then, the average of three animals was calculated. […]

[2] = DPPH test of antiradical activity; settings: substances at 100 μM, mean ± SEM
Description: The DPPH test was used to examine antiradical activity based on the ability of a stable chromogen radical of 2,2-diphenyl-1-picrylhydrazyl (DPPH) to remove a hydrogen atom, which is accompanied by a change in the absorption maximum in the electronic absorption spectra. The amount of reduced DPPH was measured using a Cytation ™ 3 multifunctional plate analyzer (BioTek Instruments, Inc., Winooski, VT, USA) at a wavelength of 517 nm.
The antiradical activity of the test compounds was evaluated by the DPPH test, based on the ability of antioxidants to donate an electron to the stable chromogen radical DPPH, converting it into a nonradical form and neutralizing its activity. […] The chromogenic free radical DPPH used in this test has a large size, and substances even with a similar chemical structure may have different antiradical properties due to spatially difficult access.

O=C(CCCCCCC(=O)NC1C2CC3CC(C2)CC1C3)NO (centres unmarked) [compound 15, N^1-(Adamant-2-yl)-N^8-Hydroxyoctanediamide]
% of Activity, Inhibition of LPO, Fe (II) [1]: 21.52 ± 2.15%
% of Activity, Inhibition of LPO, t-BHP [1]: 43.24 ± 1.28%
Reduction in plaque load (Congo red-positive amyloid) (5xFAD transgenic mice): 45%
% of Activity, Antiradical Activity [2]: 19.70 ± 1.34%

O=C(/C=C/c1ccc(C(=O)NO)cc1)NC1C2CC3CC(C2)CC1C3 (centres unmarked) [compound 25, 4-((E)-3-((-Adamantan-2-yl)amino)-3-Oxoprop-1-en-1-yl)-N-Hydroxybenzamide]
% of Activity, Inhibition of LPO, Fe (II) [1]: 19.81 ± 4.83%
% of Activity, Inhibition of LPO, t-BHP [1]: 44.59 ± 1.73%
Reduction in plaque load (Congo red-positive amyloid) (5xFAD transgenic mice): No changes in β-amyloid plaque level
% of Activity, Antiradical Activity [2]: 43.34 ± 1.42%
